We go through 17 compounds from patent publication US4468394A, “Cephalosporin compounds” (Eisai Co., Ltd., priority 1981, dated 1984).

Structures are written as SMILES. Converted amounts (≈) assume the structure as drawn. Where a name gives a salt, the structure may show the parent alone.

For data set [1], the system named is Kleb. pneumoniae EK-6. The experiment in a line: Antibacterial activity (MIC), Kleb. pneumoniae EK-6. As to conditions: Klebsiella pneumoniae. The class given is cell-based. The text has this: (§1) Tables 1 and 2 show the antibacterial activity (MIC, μg/mL) of the compounds of this invention.
In data set [2] the test system is Pseud. aeruginosa EP-067. The experiment in a line: Antibacterial activity (MIC), Pseud. aeruginosa EP-067. In kind it is cell-based. The following applies: Pseudomonas aeruginosa.
Text: as §1

In data set [3] the test system is Pseud. aeruginosa EP-069. The experiment in a line: Antibacterial activity (MIC), Pseud. aeruginosa EP-069. The class given is cell-based. The following applies: Pseudomonas aeruginosa.
Text: as §1

In data set [4] the test system is Pseud. aeruginosa EP-071. The experiment in a line: Antibacterial activity (MIC), Pseud. aeruginosa EP-071. In kind it is cell-based. As to conditions: Pseudomonas aeruginosa.
Text: as §1

In data set [5] the test system is Pseud. aeruginosa. As to conditions: in words; cited from earlier work.
The subject of data set [6] is Kleb. pneumoniae. As to conditions: in words; cited from earlier work.
Data set [7] in a line: Acute toxicity LD50 (mouse, oral). As to conditions: in vivo. The text has this:
The acute toxicity values [LD50 (mouse, oral)] of the compounds of this invention are higher than 4 g/kg in the case of 7β-[D-2-(6,7-dihydroxy-4-oxo-4H-1-benzothiopyran-3-carboxamide)-2-(4- hydroxyphenyl)acetamide]-3-(1-carboxymethyl-5-tetrazolyl)thiomethyl-3-cephem-4-carboxylic acid and 7β-[D-2-(6,7-diacetoxy-1-ethyl-1,4-dihydro-4-oxoquinoline-3-carboxamide)-2-(4-hydroxyphenyl)acetamide]-3-(1-carboxymethyl-5-tetrazolyl)thiomethyl-3-cephem-4-carboxylic acid, as well as 7β-[D-2-(6,7-dihydroxy-2-oxo-2H-1-benzopyran-3-carboxamide)-2-(4-hydroxyphenyl)acetamide]-3-(1-carboxymethyl-5-tetrazolyl)thiomethyl-3-cephem-4-carboxylic acid and 7β-[D-2-(6,7-dihydroxy-2-oxo-2H-1-benzothiopyran-3-carboxamide)-2-(4- hydroxyphenyl)acetamide]-3-(1-carboxymethyl-5-tetrazolyl)thiomethyl-3-cephem-4-carboxylic acid.

For the compound `CC1(C)S[C@@H]2[C@H](NC(=O)[C@H](NC(=O)c3cnc4cccnc4c3O)c3ccccc3)C(=O)N2[C@H]1C(=O)O` [D(-)-α-(4-hydroxy-1,5-naphthyridine-3-carboxamide)benzylpenicillin, reference compound], the minimum inhibitory concentration (MIC) (in general, the lowest concentration that inhibits growth of the organism) amounted to 3.13 µg/mL (≈ 6 µM) in data set [1] (EK6, Table 1); 12.5 µg/mL (≈ 24 µM) in data set [2] (EP067, Table 1); 12.5 µg/mL (≈ 24 µM) in data set [3] (EP069, Table 1); 0.8 µg/mL (≈ 1.53 µM) in data set [4] (EP071, Table 1). The “antibacterial activity according to the known literature” value in data set [5] is listed as “highest antibacterial activity”.
As to `CC1(C)S[C@@H]2[C@H](NC(=O)[C@H](NC(=O)c3cc4ccccc4oc3=O)c3ccccc3)C(=O)N2[C@H]1C(=O)O` [D(-)-α-(coumarin-3-carboxamide)benzylpenicillin, reference compound], the MIC in data set [1] (EK6, Table 2) came out at 12.5 µg/mL (≈ 24 µM); in data set [2] (EP067, Table 2), 12.5 µg/mL (≈ 24 µM); in data set [3] (EP069, Table 2) it was 12.5 µg/mL (≈ 24 µM); in data set [4] (EP071, Table 2), 1.56 µg/mL (≈ 2.99 µM). The “antibacterial activity according to the known literature” value in data set [6] and in data set [5] was “highest in antibacterial activity” throughout.
As for `CCn1cc(C(=O)N[C@@H](C(=O)N[C@@H]2C(=O)N3[C@@H]2SC(C)(C)[C@@H]3C(=O)O)c2ccccc2)c(=O)c2cc(OC(C)=O)c(OC(C)=O)cc21` [Example 2, 6β-[D-2-(6,7-Diacetoxy-1-ethyl-1,4-dihydro-4-oxoquinoline-3-carboxamide)-2-phenylacetamide]penicillanic acid], the minimum inhibitory concentration (MIC) in data set [1] (EK6, Table 1) was 0.2 µg/mL (≈ 0.301 µM); in data set [2] (EP067, Table 1), 1.56 µg/mL (≈ 2.35 µM); in data set [3] (EP069, Table 1), 3.13 µg/mL (≈ 4.71 µM); in data set [4] (EP071, Table 1) it was 0.1 µg/mL (≈ 0.15 µM).
`CCn1cc(C(=O)N[C@@H](C(=O)N[C@@H]2C(=O)N3C(C(=O)O)=C(CSc4nnnn4CC(=O)O)CS[C@H]23)c2ccc(O)cc2)c(=O)c2cc(OC(C)=O)c(OC(C)=O)cc21` [Example 5, 7β-[D-2-(6,7-Diacetoxy-1-ethyl-1,4-dihydro-4-oxoquinoline-3-carboxamide)-2-(4-hydroxyphenyl)acetamide]-3-(1-carboxymethyl-5-tetrazolyl)thiomethyl-3-cephem-4-carboxylic acid]: the minimum inhibitory concentration (MIC) was determined as 0.024 µg/mL (≈ 0.0287 µM) in data set [1] (EK6, Table 1); 3.13 µg/mL (≈ 3.74 µM) in data set [2] (EP067, Table 1); 3.13 µg/mL (≈ 3.74 µM) in data set [3] (EP069, Table 1); 0.2 µg/mL (≈ 0.239 µM) in data set [4] (EP071, Table 1). Besides, the 50% lethal dose (LD50) (in general, the dose expected to kill half of the subjects tested) in data set [7] was greater than 4000 mg/kg.
Take `CCn1cc(C(=O)N[C@@H](C(=O)N[C@@H]2C(=O)N3C(C(=O)O)=C(CSc4nnc(C)s4)CS[C@H]23)c2ccc(O)cc2)c(=O)c2cc(O)c(O)cc21` [Example 6, 7β-[D-2-(6,7-Dihydroxy-1-ethyl-1,4-dihydro-4-oxoquinoline-3-carboxamide)-2-(4-hydroxyphenyl)acetamide]-3-[5-methyl-2-(1,3,4-thiadiazolyl)]thiomethyl-3-cephem-4-carboxylic acid]: the MIC in data set [1] (EK6, Table 1) came to 0.05 µg/mL (≈ 0.069 µM); in data set [2] (EP067, Table 1), 3.13 µg/mL (≈ 4.32 µM); in data set [3] (EP069, Table 1), 3.13 µg/mL (≈ 4.32 µM); in data set [4] (EP071, Table 1), 0.2 µg/mL (≈ 0.276 µM).
As for `O=C(O)Cn1nnnc1SCC1=C(C(=O)O)N2C(=O)[C@@H](NC(=O)[C@H](NC(=O)c3csc4cc(O)c(O)cc4c3=O)c3ccc(O)cc3)[C@H]2SC1` [Example 10, 7β-[D-2-(6,7-Dihydroxy-4-oxo-4H-1-benzothiopyran-3-carboxamide)-2-(4-hydroxyphenyl)acetamide]-3-(1-carboxymethyl-5-tetrazolyl)thiomethyl-3-cephem-4-carboxylic acid], the MIC was no more than 0.012 µg/mL in data set [1] (EK6, Table 1); 3.13 µg/mL (≈ 4.22 µM) in data set [2] (EP067, Table 1); 3.13 µg/mL (≈ 4.22 µM) in data set [3] (EP069, Table 1); 0.2 µg/mL (≈ 0.27 µM) in data set [4] (EP071, Table 1). The LD50 in data set [7] was greater than 4000 mg/kg.
`CO[C@@]1(NC(=O)[C@H](NC(=O)c2csc3cc(OC(C)=O)c(OC(C)=O)cc3c2=O)c2ccc(O)cc2)C(=O)N2C(C(=O)O)=C(COC(C)=O)CS[C@@H]21` [Example 11, 7β-[D-2-(6,7-Diacetoxy-4-oxo-4H-1-benzothiopyran-3-carboxamide)-2-(4-hydroxyphenyl)acetamide]-7α-methoxy-3-acetoxymethyl-3-cephem-4-carboxylic acid]: the MIC turned out to be 0.024 µg/mL (≈ 0.0318 µM) in data set [1] (EK6, Table 1); 3.13 µg/mL (≈ 4.14 µM) in data set [2] (EP067, Table 1); 3.13 µg/mL (≈ 4.14 µM) in data set [3] (EP069, Table 1); 0.2 µg/mL (≈ 0.265 µM) in data set [4] (EP071, Table 1).
With `CCn1cc(C(=O)N[C@@H](C(=O)N[C@@H]2C(=O)N3C(C(=O)O)=C(CSc4nnc(C)s4)CS[C@H]23)c2ccc(O)cc2)c(=O)c2cc(OC(C)=O)c(O)cc21` [Example 12, 7β-[D-2-(6-Acetoxy-7-hydroxy-1-ethyl-1,4-dihydro-4-oxoquinoline-3-carboxamide)-2-(4-hydroxyphenyl)acetamide]-3-[5-methyl-2-(1,3,4-thiadiazolyl)]thiomethyl-3-cephem-4-carboxylic acid sodium salt], the minimal inhibitory concentration (MIC) stood at 0.024 µg/mL in data set [1] (EK6, Table 1); 3.13 µg/mL in data set [2] (EP067, Table 1); 3.13 µg/mL in data set [3] (EP069, Table 1); 0.2 µg/mL in data set [4] (EP071, Table 1).
In the case of `CC(=O)Oc1cc2cc(C(=O)N[C@@H](C(=O)N[C@@H]3C(=O)N4[C@@H]3SC(C)(C)[C@@H]4C(=O)O)c3ccccc3)c(=O)oc2cc1OC(C)=O` [Example 14, 6β-[D-2-(6,7-Diacetoxy-2-oxo-2H-1-benzopyran-3-carboxamide)-2-phenylacetamide]penicillanic acid], the MIC in data set [1] (EK6, Table 2) is 0.2 µg/mL (≈ 0.314 µM); in data set [2] (EP067, Table 2), 1.56 µg/mL (≈ 2.45 µM); in data set [3] (EP069, Table 2), 1.56 µg/mL (≈ 2.45 µM); in data set [4] (EP071, Table 2), 0.2 µg/mL (≈ 0.314 µM).
Regarding `Cn1nnnc1SCC1=C(C(=O)O)N2C(=O)[C@@H](NC(=O)[C@H](NC(=O)c3cc4cc(O)c(O)cc4oc3=O)c3ccc(O)cc3)[C@H]2SC1` [Example 20, 7β-[D-2-(6,7-Dihydroxy-2-oxo-2H-1-benzopyran-3-carboxamide)-2-(4-hydroxyphenyl)acetamide]-3-(1-methyl-5-tetrazolyl)thiomethyl-3-cephem-4-carboxylic acid], the minimal inhibitory concentration (MIC) in data set [1] (EK6, Table 2) is 0.2 µg/mL (≈ 0.293 µM); in data set [2] (EP067, Table 2) it was 0.8 µg/mL (≈ 1.17 µM); in data set [3] (EP069, Table 2), 0.8 µg/mL (≈ 1.17 µM); in data set [4] (EP071, Table 2), 0.2 µg/mL (≈ 0.293 µM).
With `O=C(O)Cn1nnnc1SCC1=C(C(=O)O)N2C(=O)[C@@H](NC(=O)[C@H](NC(=O)c3cc4cc(O)c(O)cc4oc3=O)c3ccc(O)cc3)[C@H]2SC1` [Example 21, 7β-[D-2-(6,7-Dihydroxy-2-oxo-2H-1-benzopyran-3-carboxamide)-2-(4-hydroxyphenyl)acetamide]-3-(1-carboxymethyl-5-tetrazolyl)thiomethyl-3-cephem-4-carboxylic acid], the median lethal dose (LD50) in data set [7] was greater than 4000 mg/kg.
As to `CC(=O)OCC1=C(C(=O)O)N2C(=O)[C@@H](NC(=O)[C@H](NC(=O)c3cc4ccc(O)c(O)c4oc3=O)c3ccc(O)cc3)[C@H]2SC1` [Example 25, 7β-[D-2-(7,8-Dihydroxy-2-oxo-2H-1-benzopyran-3-carboxamide)-2-(4-hydroxyphenyl)acetamide]-3-acetoxymethyl-3-cephem-4-carboxylic acid], the minimum inhibitory concentration (MIC) in data set [1] (EK6, Table 2) was found to be 0.1 µg/mL (≈ 0.16 µM); in data set [2] (EP067, Table 2) it was 0.8 µg/mL (≈ 1.28 µM); in data set [3] (EP069, Table 2), 1.56 µg/mL (≈ 2.49 µM); in data set [4] (EP071, Table 2), 0.1 µg/mL (≈ 0.16 µM).
For `O=C(O)Cn1nnnc1SCC1=C(C(=O)O)N2C(=O)[C@@H](NC(=O)[C@H](NC(=O)c3cc4ccc(O)c(O)c4oc3=O)c3ccc(O)cc3)[C@H]2SC1` [Example 27, 7β-[D-(7,8-Dihydroxy-2-oxo-2H-1-benzopyran-3-carboxamide)-2-(4-hydroxyphenyl)acetamide]-3-(1-carboxymethyl-5-tetrazolyl)thiomethyl-3-cephem-4-carboxylic acid], the minimal inhibitory concentration (MIC) in data set [1] (EK6, Table 2) is no more than 0.012 µg/mL; in data set [2] (EP067, Table 2) it was 1.56 µg/mL (≈ 2.15 µM); in data set [3] (EP069, Table 2), 1.56 µg/mL (≈ 2.15 µM); in data set [4] (EP071, Table 2), 0.1 µg/mL (≈ 0.138 µM).
As to `CC(=O)Oc1cc2cc(C(=O)N[C@@H](C(=O)N[C@@H]3C(=O)N4[C@@H]3SC(C)(C)[C@@H]4C(=O)O)c3ccccc3)c(=O)sc2cc1OC(C)=O` [Example 28, 6β-[D-2-(6,7-Diacetoxy-2-oxo-2H-1-benzothiopyran-3-carboxamide)-2-phenylacetamide]penicillanic acid], the MIC in data set [1] (EK6, Table 2) was determined as 0.1 µg/mL (≈ 0.153 µM); in data set [2] (EP067, Table 2), 1.56 µg/mL (≈ 2.39 µM); in data set [3] (EP069, Table 2) it was 3.13 µg/mL (≈ 4.79 µM); in data set [4] (EP071, Table 2), 0.1 µg/mL (≈ 0.153 µM).
For `O=C(O)Cn1nnnc1SCC1=C(C(=O)O)N2C(=O)[C@@H](NC(=O)[C@H](NC(=O)c3cc4cc(O)c(O)cc4sc3=O)c3ccc(O)cc3)[C@H]2SC1` [Example 30], the LD50 in data set [7] was greater than 4000 mg/kg.
`Cc1nnc(SCC2=C(C(=O)O)N3C(=O)[C@@H](NC(=O)[C@H](NC(=O)c4cc5cc(O)c(O)cc5[nH]c4=O)c4ccc(O)cc4)[C@H]3SC2)s1` [Example 34, 7β-[D-2-(6,7-Dihydroxy-1,2-dihydro-2-oxoquinoline-3-carboxamide)-2-(4-hydroxyphenyl)acetamide]-3-[5-methyl-2-(1,3,4-thiadiazolyl)]thiomethyl-3-cephem-4-carboxylic acid]: the minimal inhibitory concentration (MIC) in data set [1] (EK6, Table 2) is 0.4 µg/mL (≈ 0.574 µM); in data set [2] (EP067, Table 2), 3.13 µg/mL (≈ 4.49 µM); in data set [3] (EP069, Table 2), 3.13 µg/mL (≈ 4.49 µM); in data set [4] (EP071, Table 2) it was 0.4 µg/mL (≈ 0.574 µM).
On to `CC(=O)OCC1=C(C(=O)O)N2C(=O)[C@@H](NC(=O)[C@H](NC(=O)c3cc4cc(OC(C)=O)c(OC(C)=O)cc4n(C)c3=O)c3ccc(O)cc3)[C@H]2SC1` [Example 35, 7β-[D-2-(6,7-Diacetoxy-1-methyl-1,2-dihydro-2-oxoquinoline-3-carboxamide)-2-(4-hydroxyphenyl)acetamide]-3-acetoxymethyl-3-cephem-4-carboxylic acid], for which the MIC was found to be 0.8 µg/mL (≈ 1.11 µM) in data set [1] (EK6, Table 2); 3.13 µg/mL (≈ 4.33 µM) in data set [2] (EP067, Table 2); 1.56 µg/mL (≈ 2.16 µM) in data set [3] (EP069, Table 2); 0.2 µg/mL (≈ 0.277 µM) in data set [4] (EP071, Table 2).
